Results on 23 compounds are retold here after patent US6794396B2, “Substituted pyridines useful for inhibiting cholesteryl ester transfer protein activity” (Pharmacia Corporation, priority 1998, dated 2004).

Several values for one entry are separate records, joined by “and”; a condition that tells them apart may be missing. Identical values can stand only once.

One assay concerns the target T1, CETP (Homo sapiens, UniProt P11597).
T1 construct: made in house; host or cells: CHO cells (serum-free conditioned medium)
T1 sequence (P11597 18-493): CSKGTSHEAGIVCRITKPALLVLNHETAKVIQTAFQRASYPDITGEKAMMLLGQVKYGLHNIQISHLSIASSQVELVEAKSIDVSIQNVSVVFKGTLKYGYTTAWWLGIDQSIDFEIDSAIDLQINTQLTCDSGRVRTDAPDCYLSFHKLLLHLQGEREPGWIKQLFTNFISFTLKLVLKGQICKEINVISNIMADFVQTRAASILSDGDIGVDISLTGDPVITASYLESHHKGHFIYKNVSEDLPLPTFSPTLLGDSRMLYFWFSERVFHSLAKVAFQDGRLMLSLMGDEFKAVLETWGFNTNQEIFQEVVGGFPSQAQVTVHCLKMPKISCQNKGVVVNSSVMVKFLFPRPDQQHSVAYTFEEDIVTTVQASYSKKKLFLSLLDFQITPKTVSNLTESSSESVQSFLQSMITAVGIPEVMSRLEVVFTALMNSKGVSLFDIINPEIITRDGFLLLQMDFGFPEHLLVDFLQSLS
The experiment in a line: CETP activity in vitro: transfer of [3H]CE from HDL donor to LDL acceptor particles. The assay is classed as biochemical. The settings on record: 50% inhibition of [3H]CE transfer from HDL to LDL, 2 hours at 37° C.; read-out: IC50(μm). The protocol: The ability of compounds to inhibit CETP were assessed using an in vitro assay that measured the rate of transfer of radiolabeled cholesteryl ester ([^3H]CE) from HDL donor particles to LDL acceptor particles. Details of the assay are provided by Glenn et al. (“Quantification of Cholesteryl Ester Transfer Protein (CETP): A) CETP Activity and B) Immunochemical Assay of CETP Protein,” Meth. Enzymol., Glenn and Melton (Meth. Enzymol., 263, 339-351 (1996), which is incorporated herein by reference). CETP was obtained from the serum-free conditioned medium of CHO cells transfected with a cDNA for CETP (Wang, S. et al. J. Biol Chem. 267, 17487-17490 (1992), which is incorporated herein by reference).
To measure CETP activity, [^3H]CE-labeled HDL, LDL, CETP and assay buffer (50 mM tris(hydroxymethyl)amino-methane, pH 7.4; 150 mM sodium chloride; 2 mM ethylenediamine-tetraacetic acid; 1% bovine serum albumin) were incubated in a volume of 200 μl, for 2 hours at 37° C. in 96 well plates. LDL was differentially precipitated by the addition of 50 μl of 1% (w/v) dextran sulfate/0.5 M magnesium chloride, mixed by vortex, and incubated at room temperature for 10 minutes The solution (200μl) was transferred to a filter plate (Millipore). After filtration, the radioactivity present in the precipitated LDL was measured by liquid scintillation counting.
This value was defined as the IC50.
For orientation: IC50 means the concentration needed to halve the response being measured. Regarding `COC(=O)c1c(C(F)F)nc(C(F)(F)F)c(C(=O)Oc2cccc(OC)c2)c1CC(C)C` [Compound 165, 3-Methyl 5-(3-Methoxyphenyl) 2-(Difluoromethyl)-4-(2-methylpropyl)-6-(trifluoromethyl)-3,5-pyridicarboxylate], the IC50 is > 100 µM and 70 µM.
The same measure, in the same setting: under `COC(=O)c1c(C(F)F)nc(C(F)(F)F)c(C(=O)Oc2ccc(C(C)(C)C)cc2C(C)(C)C)c1CC(C)C` [Compound 168, 3-Methyl 5-(2,4-Di-t-butylphenyl) 2-(Difluoromethyl)-4-(2-methylpropyl)-6-(trifluoromethyl)-3,5-pyridicarboxylate] stands 60 µM; under `COC(=O)c1c(C(F)F)nc(C(F)(F)F)c(C(=O)Oc2ccc(C(C)C)cc2Cc2ccc(F)cc2)c1CC(C)C` [Compound 170, 3-Methyl 5-[2-(4-Fluorobenzyl)-4-isopropylphenyl]2-(Difluoromethyl)-4-(2-methylpropyl)-6-(trifluoromethyl)-3,5-pyridicarboxylate], 40 µM.

The assay is the same for the next values; noted with them: @ 100 μm; footnotes A and B of Table 6.
In the case of `COC(=O)c1c(C(F)F)nc(C(F)(F)F)c(CSc2nccn2C)c1CC(C)C` [Compound 188, Methyl 5-[(1-Methylimidazol-2-yl)thiomethyl]-2-(difluoromethyl)-4-(2-methylpropyl)-6-(trifluoromethyl)-3-pyridinecarboxylate], the CE transferred entry is reported as “^A90% CE transferred @ 100 μm”.
The same measure, in the same setting: under `COC(=O)c1c(C(F)F)nc(C(F)(F)F)c(CSc2nnnn2C)c1CC(C)C` [Compound 189, Methyl 5-[(1-Methyltetrazol-5-yl)thiomethyl]-2-(difluoromethyl)-4-(2-methylpropyl)-6-(trifluoromethyl)-3-pyridinecarboxylate] stands “^A90% CE transferred @ 100 μm”.

The assay is the same for the next values; noted with them: IC50(μm), 50% inhibition of [3H]CE transfer from HDL to LDL, 2 hours at 37° C.
Consider `COC(=O)c1c(C(F)F)nc(C(F)(F)F)c(C(=O)Oc2ccccc2C(C)C)c1CC(C)C` [Compound 175, 3-Methyl 5-(2-Isopropylphenyl) 2-(Difluoromethyl)-4-(2-methylpropyl)-6-(trifluoromethyl)-3,5-pyridicarboxylate], for which the IC50 is above 100 µM.

Still in this assay, the particulars now being: IC50, Table 5, compounds of formula T-5.
`COC(=O)c1c(C(F)F)nc(C(F)(F)F)c(SC(=O)c2c(C(F)(F)F)nc(C(F)F)c(C(=O)OC)c2CC(C)C)c1CC(C)C` [Compound 183, Methyl 5-{[2-(Difluoromethyl)-4-(2-methylpropyl)-3-(methoxycarbonyl)-6-(trifluoromethyl)-5-pyridyl]carbonylthio}-2-(difluoromethyl)-4-(2-methylpropyl)-6-(trifluoromethyl)-3-pyridinecarboxylate] came in with an IC50 of 50 µM.

The same assay, now with this note: IC50, Table 6, compounds of formula T-6.
Take `COC(=O)c1c(C(F)F)nc(C(F)(F)F)c(CSc2ccc(Cl)cc2)c1CC(C)C` [Compound 185, Methyl 5-[(4-Chlorophenyl)thiomethyl]-2-(difluoromethyl)-4-(2-methylpropyl)-6-(trifluoromethyl)-3-pyridinecarboxylate]: half-maximal inhibition (IC50) required 10 µM.
Same read-out and setting: the value for `COC(=O)c1c(C(F)F)nc(C(F)(F)F)c(CSc2nccn2C)c1CC(C)C` [Compound 188, Methyl 5-[(1-Methylimidazol-2-yl)thiomethyl]-2-(difluoromethyl)-4-(2-methylpropyl)-6-(trifluoromethyl)-3-pyridinecarboxylate] was above 100 µM.
On to `COC(=O)c1c(C(F)F)nc(C(F)(F)F)c(CSc2ccc(OC(F)(F)F)cc2)c1CC(C)C` [Compound 191], for which half-maximal inhibition (IC50) required 10 µM.
Still for that read-out and setting: under `COC(=O)c1c(C(F)F)nc(C(F)(F)F)c(CSc2ccc([N+](=O)[O-])cc2)c1CC(C)C` [Compound 198, Methyl 5-[(4-Nitrophenyl)thiomethyl]-2-(difluoromethyl)-4-(2-methylpropyl)-6-(trifluoromethyl)-3-pyridinecarboxylate] stands 7 µM.

The same assay, now with this note: Table 5, compounds of formula T-5; read-out: IC50.
Regarding `COC(=O)c1c(C(F)F)nc(C(F)(F)F)c(CSc2c(C(F)(F)F)nc(C(F)F)c(C(=O)OC)c2CC(C)C)c1CC(C)C` [Compound 182, Methyl 5-{[3-(Carbomethoxy)-2-(difluoromethyl)-4-isobutyl-6-(trifluoromethyl)-5-pyridyl]thiomethyl}-2-(difluoromethyl)-4-isobutyl-6-(trifluoromethyl)-3-pyridinecarboxylate], the IC50 is 19 µM.

The same assay, now with this note: Table 6, compounds of formula T-6; read-out: IC50.
As to `COC(=O)c1c(C(F)F)nc(C(F)(F)F)c(CSc2cccc(Br)c2)c1CC(C)C` [Compound 184, Methyl 5-[(3-Bromophenyl)thiomethyl]-2-(difluoromethyl)-4-(2-methylpropyl)-6-(trifluoromethyl)-3-pyridinecarboxylate], the IC50 is 30 µM.
Still for that read-out and setting: under `COC(=O)c1c(C(F)F)nc(C(F)(F)F)c(CSc2c(F)c(F)cc(F)c2F)c1CC(C)C` [Compound 186, Methyl 5-[(2,3,5,6-Tetrafluorophenyl)thiomethyl]-2-(difluoromethyl)-4-(2-methylpropyl)-6-(trifluoromethyl)-3-pyridinecarboxylate] stands 50 µM; under `COC(=O)c1c(C(F)F)nc(C(F)(F)F)c(CSc2cc(C(C)(C)C)cc(C(C)(C)C)c2)c1CC(C)C` [Compound 187, Methyl 5-[(3,5-Di-t-butylphenyl)thiomethyl]-2-(difluoromethyl)-4-(2-methylpropyl)-6-(trifluoromethyl)-3-pyridinecarboxylate], 40 µM.
On to `COC(=O)c1c(C(F)F)nc(C(F)(F)F)c(CSc2nnnn2C)c1CC(C)C` [Compound 189, Methyl 5-[(1-Methyltetrazol-5-yl)thiomethyl]-2-(difluoromethyl)-4-(2-methylpropyl)-6-(trifluoromethyl)-3-pyridinecarboxylate], for which the 50% inhibitory concentration (IC50) is above 100 µM.
`COC(=O)c1c(C(F)F)nc(C(F)(F)F)c(CSc2nc3ccc([N+](=O)[O-])cc3[nH]2)c1CC(C)C` [Compound 190, Methyl 5-[(5-Nitrobenzimidazol-2-yl)thiomethyl]-2-(difluoromethyl)-4-(2-methylpropyl)-6-(trifluoromethyl)-3-pyridinecarboxylate]: the IC50 amounted to 25 µM.
The same measure, in the same setting: the value for `COC(=O)c1c(C(F)F)nc(C(F)(F)F)c(CSc2ccc3ccccc3n2)c1CC(C)C` [Compound 192, Methyl 5-[(Quinolin-2-yl)thiomethyl]-2-(difluoromethyl)-4-(2-methylpropyl)-6-(trifluoromethyl)-3-pyridinecarboxylate] was 40 µM; that for `COC(=O)c1c(C(F)F)nc(C(F)(F)F)c(CSc2ccc(Br)cc2)c1CC(C)C` [Compound 193, Methyl 5-[(4-Bromophenyl)thiomethyl]-2-(difluoromethyl)-4-(2-methylpropyl)-6-(trifluoromethyl) -3-pyridinecarboxylate] was 20 µM; that for `COC(=O)c1c(C(F)F)nc(C(F)(F)F)c(CSc2c(F)c(F)c(F)c(F)c2F)c1CC(C)C` [Compound 194, Methyl 5-[(Pentafluorophenyl)thiomethyl]-2-(difluoromethyl)-4-(2-methylpropyl)-6-(trifluoromethyl)-3-pyridinecarboxylate] was 30 µM.
The same measure, in the same setting: under `COC(=O)c1c(C(F)F)nc(C(F)(F)F)c(CSc2cc(Cl)ccc2Cl)c1CC(C)C` [Compound 195, Methyl 5-[(2,5-Dichlorophenyl)thiomethyl]-2-(difluoromethyl)-4-(2-methylpropyl)-6-(trifluoromethyl)-3-pyridinecarboxylate] stands 50 µM; under `COC(=O)c1c(C(F)F)nc(C(F)(F)F)c(CSc2c(F)c(F)c(C(F)(F)F)c(F)c2F)c1CC(C)C` [Compound 196, Methyl 5-[(2,3,5,6-Tetrafluoro-4-(trifluoromethyl)phenyl)thiomethyl]-2-(difluoromethyl)-4-(2-methylpropyl)-6-(trifluoromethyl)-3-pyridinecarboxylate], 20 µM.
The same measure, in the same setting: the value for `COC(=O)c1c(C(F)F)nc(C(F)(F)F)c(CSc2nccc(C)n2)c1CC(C)C` [Compound 197, Methyl 5-[(4-Methylpyrimidin-2-yl)thiomethyl]-2-(difluoromethyl)-4-(2-methylpropyl)-6-(trifluoromethyl)-3-pyridinecarboxylate] was 60 µM; that for `COC(=O)c1c(C(F)F)nc(C(F)(F)F)c(CSc2ccc(OC)cc2)c1CC(C)C` [Compound 199, Methyl 5-[(4-Methoxyphenyl)thiomethyl]-2-(difluoromethyl)-4-(2-methylpropyl)-6-(trifluoromethyl)-3-pyridinecarboxylate] was 20 µM; that for `COC(=O)c1c(C(F)F)nc(C(F)(F)F)c(CSc2ccccc2Cl)c1CC(C)C` [Compound 200, Methyl 5-[(2-Chlorophenyl)thiomethyl]-2-(difluoromethyl)-4-(2-methylpropyl)-6-(trifluoromethyl)-3-pyridinecarboxylate] was 40 µM.
